For test [1], the target named is T1, Prostaglandin G/H synthase 2 (Ovis aries, UniProt P79208).
T1 sequence (P79208 whole entry): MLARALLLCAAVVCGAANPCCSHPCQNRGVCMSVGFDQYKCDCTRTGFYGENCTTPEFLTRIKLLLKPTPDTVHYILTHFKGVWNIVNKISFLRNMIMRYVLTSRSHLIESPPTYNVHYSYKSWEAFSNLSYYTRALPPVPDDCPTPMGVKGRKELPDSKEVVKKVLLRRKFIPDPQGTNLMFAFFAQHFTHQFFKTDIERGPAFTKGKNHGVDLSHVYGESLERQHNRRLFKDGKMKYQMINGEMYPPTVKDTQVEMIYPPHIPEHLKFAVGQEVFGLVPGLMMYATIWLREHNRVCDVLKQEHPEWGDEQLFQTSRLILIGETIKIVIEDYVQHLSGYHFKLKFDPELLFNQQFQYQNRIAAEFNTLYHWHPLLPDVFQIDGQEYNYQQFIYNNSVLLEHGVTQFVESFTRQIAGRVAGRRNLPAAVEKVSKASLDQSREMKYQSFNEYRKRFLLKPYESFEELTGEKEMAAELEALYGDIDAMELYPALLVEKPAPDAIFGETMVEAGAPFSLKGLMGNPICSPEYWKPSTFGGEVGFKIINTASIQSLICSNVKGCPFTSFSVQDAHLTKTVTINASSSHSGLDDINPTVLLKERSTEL
The experiment in a line: COX Inhibition Assay. Conditions: pH 8; 37 °C. The method, then:
(§1) Stock solutions of test compounds were dissolved in a minimum volume of dimethyl sulphoxide (DMSO) toobtain 0.001, 0.01, 0.1, 1, 10, 100, and 500 μM in a final volume of 1 mL. In brief, haematin reconstituted purified COX-1 and COX-2 enzymes in a reaction buffer containing Tris-hydrochloric acid (HCl) (0.1 M, pH 8.0), 5 mM ethylenediaminetetraacetic acid (EDTA), and 2 mM phenol were pre-incubated at room temperature for 1 h with test compounds followed by the addition of AA (100 μM)for 2 min at 37°C. Reactions were terminated by adding 50 μL of 1 M HCl followed by the addition of 100 μL of stannous chloride.

Test [2] concerns the target T2, Prostaglandin G/H synthase 1 (Ovis aries, UniProt P05979).
T2 sequence (P05979 whole entry): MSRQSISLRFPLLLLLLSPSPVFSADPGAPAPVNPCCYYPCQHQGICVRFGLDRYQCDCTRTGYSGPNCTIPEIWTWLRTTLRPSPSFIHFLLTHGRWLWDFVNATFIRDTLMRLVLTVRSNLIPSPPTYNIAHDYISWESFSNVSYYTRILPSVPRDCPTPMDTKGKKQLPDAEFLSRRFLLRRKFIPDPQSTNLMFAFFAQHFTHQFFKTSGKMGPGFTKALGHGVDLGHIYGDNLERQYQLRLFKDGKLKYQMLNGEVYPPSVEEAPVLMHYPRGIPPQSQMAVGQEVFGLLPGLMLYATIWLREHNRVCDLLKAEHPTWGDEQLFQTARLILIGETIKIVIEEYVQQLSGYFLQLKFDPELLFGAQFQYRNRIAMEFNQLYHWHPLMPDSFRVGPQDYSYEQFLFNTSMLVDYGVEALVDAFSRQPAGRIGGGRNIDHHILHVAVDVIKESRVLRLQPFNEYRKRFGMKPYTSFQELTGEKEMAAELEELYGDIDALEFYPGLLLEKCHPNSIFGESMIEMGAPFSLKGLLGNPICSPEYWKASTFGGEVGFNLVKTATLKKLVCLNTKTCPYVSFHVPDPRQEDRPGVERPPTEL
In words: COX Inhibition Assay. Conditions: pH 8; 37 °C. The method, then: as §1

For orientation: IC50 means the concentration that inhibits the measured activity by half. A lower IC50 goes with higher potency. Regarding `O=c1oc2ccccc2cc1-c1nnc(-c2ccccc2)o1` [3-(5-Phenyl-[1,3,4]oxadiazol-2-yl)-chromen-2-one (4a)], the IC50 in test [1] is 8.7 µM; in test [2], below 100 µM.

Consider `Cc1ccccc1Nc1nnc(-c2cc3ccccc3oc2=O)o1` [3-(5-o-Tolylamino-[1,3,4]oxadiazol-2-yl)-chromen-2-one (6e)], for which the concentration for half-maximal inhibition (IC50) is 36.6 µM in test [1] and above 100 µM in test [2].

As to `Cc1ccc(-c2nnc(-c3cc4ccccc4oc3=O)o2)cc1` [3-(5-p-Tolyl-[1,3,4]oxadiazol-2-yl)-chromen-2-one (4c)], the half-inhibitory concentration (IC50) in test [1] is 1.18 µM; in test [2], above 100 µM.

Regarding `O=c1oc2ccccc2cc1-c1nnc(-c2ccc(Cl)cc2Cl)o1` [3-[5-(2,4-Dichloro-phenyl)-[1,3,4]oxadiazol-2-yl]-chromen-2-one (4e)], the IC50 in test [1] was 0.4 µM; in test [2], 41.6 µM.

As to `O=c1oc2ccccc2cc1-c1nnc(-c2ccc(Cl)cc2)o1` [3-[5-(4-Chloro-phenyl)-[1,3,4]oxadiazol-2-yl]-chromen-2-one (4b)], the IC50 in test [1] worked out at 1.2 µM; in test [2] it was 35 µM.

With `O=c1oc2ccccc2cc1-c1nnc(Nc2ccc(Cl)cc2)o1` [3-[5-(4-Chloro-phenylamino)-[1,3,4]oxadiazol-2-yl]-chromen-2-one (6b)], the 50% inhibitory concentration (IC50) in test [1] and in test [2] was above 100 µM throughout.

Regarding `O=C(Nc1nnc(-c2cc3ccccc3oc2=O)o1)c1ccc(Cl)cc1` [4-Chloro-N-[5-(2-oxo-2H-chromen-3-yl)-[1,3,4]oxadiazol-2-yl]-benzamide (8b)], the IC50 in test [1] and in test [2] was above 100 µM throughout.

Source of the values: BindingDB's records for doi:10.3109/14756366.2010.550890 (Jamia Hamdard University, 2011).
